PubChem BioAssay AID463204 (Broad Institute, 2010)
Activity calls are given as the source filed them.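 How the source made its calls: active means AC50 no more than ten times the top concentration tested, that is within one log above it; inconclusive means flat curve fit with activity between 30% and 70%, or invalid poor fit; inactive means AC50 beyond ten times the top tested dose.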

System: S. cerevisiae Mot1-301 ts growth rescue, BacTiter-Glo ATP luminescence
Experiment: growth rescue of Mot1-301 ts yeast, confirmation, SUMOylation pathway inhibitor project, whole organism, S. cerevisiae, Mot1-301 ts mutant, luminescence, dose retest (AID 463204);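 further: growth at restrictive 38.5 degrees C of Mot1-301 OY566 strain; actives raise luminescence by restoring growth of the ts mutant at high temperature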

SMILES | AC50
Cn1cccc1CC(=O)N/N=C/c1cccc([N+](=O)[O-])c1 | > 42 µM (inactive)
Cc1ccc(C(=O)NCCCNC(=O)c2ccc(C)nc2)cc1 | > 42 µM (inactive)
COC(=O)[C@@H]1[C@@H](C(=O)OC)C2(c3ccccc3-c3ccccc32)N(c2ccc(Cl)cc2)N1C#N | 1.72 µM
Cc1ccn2cc(-c3cnoc3C)nc2c1 | > 42 µM (inactive)
CN1C(=S)SC2CS(=O)(=O)CC21C (stereo not drawn) | > 21 µM (inactive)
Cc1cc(C)c(S(=O)(=O)c2cccc(C)c2C)c(=O)[nH]1 | > 42 µM (inactive)
Cc1ccc(S(=O)(=O)N2CCOCC2)cc1NC(=O)COC(=O)CNC(=O)c1ccccc1 | > 42 µM (inactive)
COc1ccc(N=Cc2c(O)n(C)c(=O)[nH]c2=O)cc1 | > 42 µM (inactive)
CC1(C)CC(=O)C(CC2CCCCC2=O)C(=O)C1 (stereo not drawn) | > 42 µM (inactive)
COc1ccc2c(c1)OC[C@H]1[C@H]2N2C(=O)c3cc(C)ccc3NC(=O)[C@@]2(C)[C@H]1c1ccccc1 | 1.39 µM
Cc1nn(C)cc1S(=O)(=O)Nc1ncccn1 | > 42 µM (inactive)
CN(C)/C=C/C(=O)c1ccncc1 | > 42 µM (inactive)
O=C(NCc1nc(-c2ccccc2)no1)c1cccs1 | > 42 µM (inactive)
Cc1ccc(-c2nnc(SCC#N)n2N)cc1 | > 42 µM (inactive)
CC(C)c1ccc2c(c1)CCC1C(C)(CN)CCCC21C (stereo not drawn) | 14.3 µM
CC1C(=O)CC(c2ccccc2)N(C)C1c1ccccc1 (stereo not drawn) | 33.7 µM
O=C1CN(C(=O)COC(=O)c2cccc(S(=O)(=O)NCc3ccccc3)c2)c2ccccc2N1 | > 42 µM (inactive)
Cc1sc2nc(SCC(=O)NCCOCCO)n(C)c(=O)c2c1C | > 42 µM (inactive)
CCCNC(=O)Cn1sc2nc(C)cc(C)c2c1=O | > 42 µM (inactive)
CC(C)C/C(=N/O)c1c[nH]c2ccccc12 | > 42 µM (inactive)
CCCSc1nnc(NC(=O)CSc2sc3c(O)cc(=O)[nH]c3c2C#N)s1 | > 42 µM (inactive)
Cc1cc(C)nc(SCC2COc3ccccc3O2)n1 (stereo not drawn) | > 42 µM (inactive)
CN(C(=O)COC(=O)c1cc2ccccc2cc1O)c1c(N)n(Cc2ccccc2)c(=O)[nH]c1=O | > 42 µM (inactive)
COCCCNC(=O)c1cc(C(=O)c2c(-c3c(Cl)cccc3Cl)noc2C)c[nH]1 | > 42 µM (inactive)
Cc1ccc(S(=O)(=O)NNC(=O)c2cc3cc4ccccc4nc3s2)cc1 | > 42 µM (inactive)

SMILES | AC50
COC(=O)C1CCN(S(=O)(=O)Cc2ccccc2)CC1 | > 42 µM (inactive)
O=C(NCc1ccccn1)C1CC(c2ccc(Cl)c(Cl)c2)=NO1 (stereo not drawn) | > 42 µM (inactive)
Cc1c(OC(C)C(=O)N2C[C@H]3C[C@@H](C2)c2cccc(=O)n2C3)ccc2c3c(c(=O)oc12)CCCC3 (stereo partly drawn) | > 42 µM (inactive)
CC(CN1CCCCCC1)C(=O)NN (stereo not drawn) | > 42 µM (inactive)
COc1ccc(/C=C(/C#N)S(=O)(=O)c2ccc(C)cc2)cc1 | > 21 µM (inactive)
N=c1c2c(n(Cc3ccc(Cl)c(Cl)c3)c3c1CCC3)CCCC2 | > 42 µM (inactive)
Cc1ccc(/C=C/C(=O)OCC(=O)N(CC(C)C)c2c(N)n(Cc3ccccc3)c(=O)[nH]c2=O)o1 | > 21 µM (inactive)
CC(C)c1nc2n[nH]c(N)c2c2c1CCC2 | > 42 µM (inactive)
Cc1c(C)c2c(c(C)c1O)CCC(C)(C(=O)O)O2 (stereo not drawn) | > 42 µM (inactive)
CCCc1nn2c(=O)cc(CSCC(=O)Nc3ccc(OC)cc3)nc2s1 | > 42 µM (inactive)
O=S(=O)(Nc1cccc2cn[nH]c12)c1ccc(F)cc1 | > 42 µM (inactive)
COc1cc(CN2CCN(c3ncccn3)CC2)cc(OC)c1 | > 42 µM (inactive)
Cc1ccccc1Cn1cc(NC(=O)c2cc3nc(-c4ccco4)cc(C(F)(F)F)n3n2)cn1 | > 42 µM (inactive)
CC(=O)Nc1ccc(CN2CCCC(CO)(Cc3cccc(Cl)c3)C2)cc1 (stereo not drawn) | > 42 µM (inactive)
COc1ccc(NC(=O)CC(C)C)c(OC)c1 | > 42 µM (inactive)
COc1cc2c(cc1OC)C(c1ccc(SC)cc1)CC(=O)N2 (stereo not drawn) | > 42 µM (inactive)
O=S(=O)(NCc1ccccc1)c1ccc(S(=O)(=O)N(Cc2ccccn2)Cc2ccco2)cc1 | > 42 µM (inactive)
COc1ccc(/C=N\NC(=O)c2cc(OCC(F)(F)F)ccc2OCC(F)(F)F)cc1 | > 42 µM (inactive)
CC(=O)c1c(Nc2cccc(F)c2)oc(C)cc1=O | > 42 µM (inactive)
COc1ccc(NC2=C(C)C(=O)CC2)cc1 | > 42 µM (inactive)
CC(=O)c1cc(C)ccc1OC(=O)c1ccco1 | > 42 µM (inactive)
CCOC(=O)c1ccc(NC(=O)c2nc[nH]c2C(=O)N2CCc3ccccc3C2)cc1 | > 42 µM (inactive)
Fc1cccc(F)c1-c1nc(-c2ccncc2)no1 | > 42 µM (inactive)
Cc1ccc(/C=C/C(=O)O)cc1S(=O)(=O)N(CCO)CCO | > 42 µM (inactive)
CN1C(=O)C(O)(CC(=O)c2ccccc2O)c2cc(Br)ccc21 (stereo not drawn) | > 42 µM (inactive)

SMILES | AC50
Cc1nnc(NC(=O)c2ccc(-c3cccc(C(F)(F)F)c3)o2)s1 | > 42 µM (inactive)
Cc1cccc(C)c1NC(=O)C(Cl)C(=O)c1ccccc1 (stereo not drawn) | 0.68 µM
O=C(Nc1ccc(Cl)cc1)N1CCC(c2nc(-c3ccc(F)cc3)no2)CC1 | > 42 µM (inactive)
Cc1ccc(O)c(C(=O)CC(=O)c2cccc(F)c2)c1 | 20.7 µM
O=C(N/C(=C/c1ccc2c(c1)OCO2)C(=O)N1CCOCC1)c1cccs1 | > 42 µM (inactive)
Cc1ccccc1CSc1n[nH]c(NS(=O)(=O)c2ccccc2)n1 | > 21 µM (inactive)
COc1ccc2oc(=O)c(C(=O)NCc3ccco3)cc2c1 | > 42 µM (inactive)
COc1ccc2[nH]cc(CCNS(=O)(=O)c3ccc(C)cc3)c2c1 | > 42 µM (inactive)
CC(=O)Nc1cccc(OCC(=O)NS(=O)(=O)c2ccc(C)cc2)c1 | > 42 µM (inactive)
C=CCn1c(-c2ccc(OC)cc2)nc2ccccc21 | > 42 µM (inactive)
COc1ccc2nc(NC(=O)c3cc(S(=O)(=O)N4CCOCC4)ccc3C)sc2c1 | > 42 µM (inactive)
CSCCc1nc(SCC(=O)Nc2nnc(C)s2)[nH]c1C | > 42 µM (inactive)
COc1ccc(N2CCN(C(=O)C3CCCN(S(=O)(=O)c4ccc5c(c4)oc(=O)n5C)C3)CC2)cc1 (stereo not drawn) | > 21 µM (inactive)
CCOc1cc(/C=C2\NC(=O)NC2=O)ccc1OC(C)C(=O)O (stereo not drawn) | > 42 µM (inactive)
CCOc1c(Cl)cc(CNCC(O)c2ccccc2)cc1OC (stereo not drawn) | > 42 µM (inactive)
CCOC(=O)C1(Cc2cccc(OC)c2)CCCN(S(=O)(=O)c2cccnc2)C1 (stereo not drawn) | > 42 µM (inactive)
COc1ccccc1CC(=O)N1CCN(S(=O)(=O)c2ccccc2)CC1 | > 42 µM (inactive)
Cc1cc(NC(=O)c2ccccc2F)n(C(C)(C)C)n1 | > 42 µM (inactive)
CCN1C(=O)c2cccc3c(S(=O)(=O)Nc4ccc(OC)cc4OC)ccc1c23 | > 42 µM (inactive)
CC(=O)OCC(OC(C)=O)C(OC(C)=O)C(OC(C)=O)C(=O)Nc1ccccc1 (stereo not drawn) | > 42 µM (inactive)
CCN(CC)C1CCN(C(=O)c2cc(COc3ccc(-n4cncn4)cc3)on2)C1 (stereo not drawn) | > 42 µM (inactive)
CC(=O)Nc1cccc2c1C(=O)N(c1ccccc1C)C2=O | > 42 µM (inactive)
CCN(CC)CCCNC(=O)C1c2ccccc2C(=O)N(CCOC)C1c1ccc(F)cc1 (stereo not drawn) | > 21 µM (inactive)
